Results: publication PMC13372822 (The EMBO Journal, 2026)
Where a name gives a salt, the structure may show the parent alone.

How the values were obtained:
SUCR1 = target: T1, SUCR1 (Homo sapiens, UniProt Q9BXA5); experiment: Calcium mobilization assay, wild-type SUCR1 in HEK293 stably expressing Gα16; type: cell-based;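 for Emax: percent of the maximal response to succinate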
T1 construct: The full-length human SUCR1 and mutations were fused after the HA signal peptide and Flag tag; HA signal peptide (N); Flag (N); expressed in transfected cells; host or cells: HEK293 stably expressing Gα16 (pcDNA6.0, transient electroporation)
T1 sequence (Q9BXA5 1-334): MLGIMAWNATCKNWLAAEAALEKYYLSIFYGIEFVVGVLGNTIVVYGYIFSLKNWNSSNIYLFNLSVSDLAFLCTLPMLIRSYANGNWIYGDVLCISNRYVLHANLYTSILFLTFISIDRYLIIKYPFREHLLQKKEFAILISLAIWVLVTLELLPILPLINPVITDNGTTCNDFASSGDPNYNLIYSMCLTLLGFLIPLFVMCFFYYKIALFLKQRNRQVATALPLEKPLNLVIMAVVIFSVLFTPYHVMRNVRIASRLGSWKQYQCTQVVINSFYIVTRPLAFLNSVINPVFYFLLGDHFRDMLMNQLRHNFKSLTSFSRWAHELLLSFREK
Method: (§1) The full-length human SUCR1 and mutations were fused after the HA signal peptide and Flag tag. The constructs were cloned into pcDNA6.0 vector for HEK293 system.
(§2) HEK293 cells were obtained from ATCC (Manassas, VA, USA) and cultured in DMEM supplemented with 10% (v/v) FBS, 100 mg/L penicillin, and 100 mg/L streptomycin in 5% CO2 at 37 °C. For transient transfection, ~2.5 × 10^6 cells were mixed with 2 µg plasmids in 200 µL transfection buffer, and electroporation was carried out with a Scientz-2C electroporation apparatus (Scientz Biotech, Ningbo, China). The experiments were carried out 24 h after transfection. HEK293 cell lines stably expressing Gα16 were constructed by our laboratory.
(§3) For OXGR1, plasmids were transfected into HEK293 (other receptors were transfected into HEK293 stably expressing Gα16) and seeded at a density of 4 × 10^4 per well into 96-well culture plates and incubated for 24 h at 37 °C in 5% CO2. The next day, Cells were incubated with 2 μM/L Fluo-4 AM in HBSS supplemented with 5.6 mM/L D-glucose and 250 μM/L sulfinpyrazone at 37 °C for 45 min. […] Three independent measurements were repeated, i.e., three different transfections, with three technical replicates performed for each experiment. EC50 and Emax values for each curve were calculated by Prism 8.0 software (GraphPad Software).

[1] = tested on: mock-transfected HEK293 cells; experiment: Calcium assay in mock-transfected (empty vector) HEK293 cells; type: cell-based
Text: Figure. R3 | Activity of the compounds on OXGR1 using calcium assays.
Concentration-response curves of the four agonists in activating OXGR1 through the calcium assays. HEK293 cells were transfected with OXGR1 or empty vector by electroporation.
Cells were then loaded with Fluo-4 AM and intracellular calcium changes after stimulation with different compounds were monitored. Responses were normalized to 100% for the maximal response of each compound on OXGR1. Data are mean ± S.E.M. from three independent experiments (n = 3), with three technical replicates performed for each […]
(1 picture or pasted object on this page, not shown here)

[2] = tested on: OXGR1 mutants (variant named in the endpoint); experiment: Calcium mobilization assay, OXGR1 mutants in HEK293; conditions: for Emax: each ligand normalized to WT (100%);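 for all read-outs here: human OXGR1 variants transiently expressed in HEK293 cells, with intracellular calcium read out by Fluo-4 AM fluorescence, measured 24 h after transfection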
Method: as §1, §2, §3

OXGR1 = OXGR1 (Homo sapiens, UniProt Q96P68); experiment: Calcium mobilization assay (Fluo-4 AM), wild-type OXGR1 in HEK293
Method: as §1, §2, §3

O=C(O)/C=C\C(=O)O [MA, maleate]
Emax (SUCR1; HEK293, SUCR1 WT, Emax relative to the SUC, read-out: Emax): 89 ± 1% | EC50 (SUCR1; SUCR1 WT): 210 ± 70 µM | activity in mock-transfected cells [1]: no activity | EC50 ([2]; OXGR1 D185A): > 1000 µM | Emax ([2]; OXGR1 D185A): 11± 3 WT% | Emax ([2]; OXGR1 E97A): 79± 7 WT% | EC50 ([2]; OXGR1 F113A): > 1000 µM | Emax ([2]; OXGR1 F113A): 5.1± 10 WT% | EC50 ([2]; OXGR1 F113W): 1000 ± 370 µM | increase in potency by F113W mutation ([2]; OXGR1 F113W versus WT): ~ 2 fold | Emax ([2]; OXGR1 F113W): 99± 14 WT% | EC50 ([2]; OXGR1 F257A): > 1000 µM | Emax ([2]; OXGR1 F257A): 6.6± 7 WT% | EC50 ([2]; OXGR1 F257Y): 1900 ± 300 µM | Emax ([2]; OXGR1 F257Y): 93± 2 WT% | EC50 ([2]; OXGR1 H114A): 4200 ± 300 µM | Emax ([2]; OXGR1 H114A): 79± 4 WT% | EC50 ([2]; OXGR1 H114L): > 1000 µM | Emax ([2]; OXGR1 H114L): -4.4± 2 WT% | Emax ([2]; OXGR1 H281A): 67±4 WT% | EC50 ([2]; OXGR1 I172A): > 1000 µM | Emax ([2]; OXGR1 I172A): 11± 2 WT% | EC50 ([2]; OXGR1 L36A): > 1000 µM | Emax ([2]; OXGR1 L36A): 10± 3 WT% | EC50 ([2]; OXGR1 L89A): > 1000 µM | Emax ([2]; OXGR1 L89A): 6.9± 1 WT% | EC50 ([2]; OXGR1 L186A): > 1000 µM | Emax ([2]; OXGR1 L186A): 14± 2 WT% | EC50 ([2]; OXGR1 L186F): > 10000 µM | Emax ([2]; OXGR1 L186F): 58± 4 WT% | EC50 ([2]; OXGR1 L299P): > 1000 µM | Emax ([2]; OXGR1 L299P): 7.8±3 WT% | activation of OXGR1 L299P ([2]; OXGR1 L299P, in words): abolished | EC50 ([2]; OXGR1 M168I): 3200 ± 300 µM | Emax ([2]; OXGR1 M168I): 71± 0.9 WT% | EC50 ([2]; OXGR1 N28A): 580 ± 30 µM | Emax ([2]; OXGR1 N28A): 120± 2 WT% | EC50 ([2]; OXGR1 R110A): > 1000 µM | Emax ([2]; OXGR1 R110A): -4.4± 2 WT% | EC50 ([2]; OXGR1 R110E): > 10000 µM | Emax ([2]; OXGR1 R110E): 36± 30 WT% | EC50 ([2]; OXGR1 R110Q): > 1000 µM | Emax ([2]; OXGR1 R110Q): 14± 5 WT% | Emax ([2]; OXGR1 R177A): 130± 8 WT% | EC50 ([2]; OXGR1 R264A): > 10000 µM | Emax ([2]; OXGR1 R264A): 54± 5 WT% | EC50 ([2]; OXGR1 R268A): > 1000 µM | Emax ([2]; OXGR1 R268A): 22± 4 WT% | EC50 ([2]; OXGR1 R288A): > 1000 µM | Emax ([2]; OXGR1 R288A): -2.1±4 WT% | EC50 ([2]; OXGR1 R288E): > 1000 µM | EC50 ([2]; OXGR1 R288Q): > 1000 µM | Emax ([2]; OXGR1 R288Q): 16±2 WT% | EC50 ([2]; OXGR1 Y40A): > 1000 µM | Emax ([2]; OXGR1 Y40A): -1.9± 6 WT% | EC50 ([2]; OXGR1 Y93A): > 1000 µM | Emax ([2]; OXGR1 Y93A): 17± 20 WT% | EC50 ([2]; OXGR1 Y284A): > 1000 µM | Emax ([2]; OXGR1 Y284A): 4.8±4 WT% | EC50 (OXGR1; EC50, OXGR1 WT, mutant series (Appendix Table S4)): 2000 ± 400 µM | Emax (OXGR1; HEK293, OXGR1 WT, each ligand normalized to WT (100%)): 100 ± 4% | activity in OXGR1-transfected HEK293 cells (OXGR1; in words): robust activity
